Results from patent US11702422B2, “Imidazopyridazines as modulators of IL-17” (Janssen Pharmaceutica NV, priority 2020, dated 2023).

Columns and labels:
[1] = biological target: IL-17A(FLAG-Tagged): IL-17RA(His-Tagged) (Homo sapiens, UniProt Q16552, K93Q); test: IL-17A(FLAG-Tagged): IL-17RA(His-Tagged) Binding Disruption Eu-HTRF Assay; conditions: IL-17A/IL-17RA binding disruption, simple average if tested more than once
In short: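 IC50 comes from a one-site competition fit of the HTRF 665/620 nm ratio. Compound dilutions (2-fold, 22 points) were held 1 h rt with FLAG-tagged IL-17A dimer, then His-tagged IL-17RA plus Eu-cryptate anti-FLAG and D2 anti-His antibodies were added for 2 h rt.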

[2] = system: IL-17A-induced G-CSF production in human normal keratinocyte (NHK); test: NHK Assay: IL-17A-induced G-CSF production in human normal keratinocytes; assay type: cell-based; conditions: 24 h, adult normal human keratinocytes, IL-17A 5 ng/mL, simple average if tested more than once
In short: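 Adult NHK, 3000-4000 cells/well; rhIL-17A + titrated cpd preincubated 1 h rt, then onto cells. Final: IL-17A 5 ng/mL, DMSO 0.2%, 5% FBS. 24 h, 37° C. G-CSF in supernatant by HTRF vs standard curve; IC50. Viability by CellTiter-Glo vs DMSO.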

Sequence of UniProt Q16552 (Q16552 with tags, fused parts or gaps K93Q): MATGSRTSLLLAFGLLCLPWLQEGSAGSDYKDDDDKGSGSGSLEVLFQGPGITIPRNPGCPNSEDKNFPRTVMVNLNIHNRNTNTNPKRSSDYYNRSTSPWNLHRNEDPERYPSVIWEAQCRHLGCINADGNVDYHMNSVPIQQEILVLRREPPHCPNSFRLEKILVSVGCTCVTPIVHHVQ

Structure (SMILES)	IC50 [1] [nM]	IC50 ([2]; Homo sapiens, Keratinocyte) [nM]	IC50 [2] [nM]
[2H]C([2H])([2H])C([2H])([2H])n1nccc1C(=O)N[C@H](c1cn2ncc(C(CC)NC(=O)CC3CC(F)(F)C3)cc2n1)C1CCC(F)(F)CC1 (single isomer, unassigned) [Example 506, N—((S)-(7-((R*)-1-(2-(3,3-Difluorocyclobutyl)acetamido)propyl)imidazo[1,2-b]pyridazin-2-yl)(4,4-difluorocyclohexyl)methyl)-1-(ethyl-d5)-1H-pyrazole-5-carboxamide]	200	130	–
O=C(CCC(F)(F)F)N[C@@H](c1cnn2cc([C@@H](NC(=O)[C@@H]3C[C@H]3C(F)F)C3CCC(F)(F)CC3)nc2c1)C1CC1 (single isomer, unassigned) [Example 360]	2700	> 20000	–
Cc1ccccc1C(=O)N[C@H](c1cn2ncc([C@H](NC(=O)CCC(F)(F)F)C3CC3)cc2n1)C1CCC(F)(F)CC1 [Example 40, N—((S)-(7-((R)-Cyclopropyl(4,4,4-trifluorobutanamido)methyl)imidazo[1,2-b]pyridazine-2-yl)(4,4-difluorocyclohexyl)methyl)-2-methylbenzamide]	410	1200	–
Cc1nonc1C(=O)N[C@H](c1cn2ncc([C@H](NC(=O)C(F)C3CCC3)C3CC3)cc2n1)C1CCC(F)(F)CC1 (single isomer, unassigned) [Example 349, N—((S)-(7-((R)-((S*)-2-Cyclobutyl-2-fluoroacetamido)(cyclopropyl)methyl)imidazo[1,2-b]pyridazin-2-yl)(4,4-difluorocyclohexyl)methyl)-4-methyl-1,2,5-oxadiazole-3-carboxamide]	420	–	1700
Cc1noc(C)c1C(=O)N[C@H](c1cn2ncc([C@H](NC(=O)CCC(F)(F)F)C3CC3)cc2n1)C1CCC(F)(F)CC1 [Example 80, N—((S)-(7-((R)-Cyclopropyl(4,4,4-trifluorobutanamido)methyl)imidazo[1,2-b]pyridazin-2-yl)(4,4-difluorocyclohexyl)methyl)-3,5-dimethylisoxazole-4-carboxamide]	17000	> 20000	–
Cc1nonc1C(=O)N[C@H](c1cn2ncc([C@H](NC(=O)[C@@]34C[C@@H](F)[C@@H]3C4)C3CC3)cc2n1)C1CCC(F)(F)CC1 (relative stereo) [Example 340, N—((S)-(7-((R)-Cyclopropyl((1S*,3R*,4R*)-3-fluorobicyclo[2.1.0]pentane-1-carboxamido)methyl)imidazo[1,2-b]pyridazin-2-yl)(4,4-difluorocyclohexyl)methyl)-4-methyl-1,2,5-oxadiazole-3-carboxamide]	8600	> 20000	–
O=C(CCC(F)(F)F)N[C@@H](c1cnn2cc([C@@H](NC(=O)c3ccccc3C(F)F)C3CCC(F)(F)CC3)nc2c1)C1CC1 [Example 187, N—((S)-(7-((R)-Cyclopropyl(4,4,4-trifluorobutanamido)methyl)imidazo[1,2-b]pyridazin-2-yl)(4,4-difluorocyclohexyl)methyl)-2-(difluoromethyl)benzamide]	260	730	–
Cc1ccnc(C(=O)N[C@H](c2cn3ncc([C@H](NC(=O)CCC(F)(F)F)C4CC4)cc3n2)C2CCC(F)(F)CC2)c1 [Example 206, N—((S)-(7-((R)-Cyclopropyl(4,4,4-trifluorobutanamido)methyl)imidazo[1,2-b]pyridazin-2-yl)(4,4-difluorocyclohexyl)methyl)-4-methylpicolinamide]	540	4000	–
O=C(CCC(F)(F)F)N[C@@H](c1cnn2cc([C@@H](NC(=O)[C@H]3C(F)(F)C34CCC4)C3CCC(F)(F)CC3)nc2c1)C1CC1 (relative stereo) [Example 368, (S*)—N—((S)-(7-((R*)-Cyclopropyl(4,4,4-trifluorobutanamido)methyl)imidazo[1,2-b]pyridazin-2-yl)(4,4-difluorocyclohexyl)methyl)-2,2-difluorospiro[2.3]hexane-1-carboxamide]	1600	9800	–
N#Cc1ccncc1C(=O)N[C@H](c1cn2ncc([C@H](NC(=O)CCC(F)(F)F)C3CC3)cc2n1)C1CCC(F)(F)CC1 [Example 225, 4-Cyano-N—((S)-(7-((R)-cyclopropyl(4,4,4-trifluorobutanamido)methyl)imidazo[1,2-b]pyridazin-2-yl)(4,4-difluorocyclohexyl)methyl)nicotinamide]	9500	> 20000	–

The next molecules have a lower IC50 [1] than those just listed; values first:

IC50 [1] [nM]	Structure (SMILES)	IC50 ([2]; Homo sapiens, Keratinocyte) [nM]	IC50 [2] [nM]
52	CC(C)n1ncc(F)c1C(=O)N[C@H](c1cn2ncc([C@H](NC(=O)CCC(F)(F)F)C3CC3)cc2n1)C1CCC(F)(F)CC1 [Example 111, N—((S)-(7-((R)-Cyclopropyl(4,4,4-trifluorobutanamido)methyl)imidazo[1,2-b]pyridazin-2-yl)(4,4-difluorocyclohexyl)methyl)-4-fluoro-1-isopropyl-1H-pyrazole-5-carboxamide]	410	–
170	Cc1nonc1C(=O)N[C@H](c1cn2ncc([C@H](NC(=O)C[C@H]3CC3(F)F)C3CC3)cc2n1)C1CCC(F)(F)CC1 (relative stereo) [Example 255]	600	–
150	Cc1nonc1C(=O)N[C@H](c1cn2ncc([C@H](NC(=O)C(C)CC(F)(F)F)C3CC3)cc2n1)C1CCC(F)(F)CC1 (single isomer, unassigned) [Example 346, N—((S)-(7-((R)-Cyclopropyl((R*)-4,4,4-trifluoro-2-methylbutanamido)methyl)imidazo[1,2-b]pyridazin-2-yl)(4,4-difluorocyclohexyl)methyl)-4-methyl-1,2,5-oxadiazole-3-carboxamide]	–	440
60	O=C(CCC(F)(F)F)N[C@@H](c1cnn2cc([C@@H](NC(=O)c3cccc(F)c3)C3CCC(F)(F)CC3)nc2c1)C1CC1 [Example 173, N—((S)-(7-((R)-Cyclopropyl(4,4,4-trifluorobutanamido)methyl)imidazo[1,2-b]pyridazin-2-yl)(4,4-difluorocyclohexyl)methyl)-3-fluorobenzamide]	340	–
100	CC(n1nccc1C(=O)N[C@H](c1cn2ncc([C@H](NC(=O)CCC(F)(F)F)C3CC3)cc2n1)C1CCC(F)(F)CC1)C(F)(F)F (single isomer, unassigned) [Example 116, N—((S)-(7-((R)-Cyclopropyl(4,4,4-trifluorobutanamido)methyl)imidazo[1,2-b]pyridazin-2-yl)(4,4-difluorocyclohexyl)methyl)-1-((S*)-1,1,1-trifluoropropan-2-yl)-1H-pyrazole-5-carboxamide]	–	210
95	[2H]C([2H])([2H])n1nccc1C(=O)N[C@H](c1cn2ncc([C@H](NC(=O)CCC(F)(F)F)C3CC3)cc2n1)C1CCC(F)(F)CC1 [Example 488, N—((S)-(7-((R)-Cyclopropyl(4,4,4-trifluorobutanamido)methyl)imidazo[1,2-b]pyridazin-2-yl)(4,4-difluorocyclohexyl)methyl)-1-(methyl-d3)-1H-pyrazole-5-carboxamide]	220	–
92	CC(C)n1nccc1C(=O)N[C@H](c1cn2ncc(C(CC3CCC3)NC(=O)CC3CC(F)(F)C3)cc2n1)C1CCC(F)(F)CC1 (single isomer, unassigned) [Example 440, N—((S)-(7-((R*)-2-Cyclobutyl-1-(2-(3,3-difluorocyclobutyl)acetamido)ethyl)imidazo[1,2-b]pyridazin-2-yl)(4,4-difluorocyclohexyl)methyl)-1-isopropyl-1H-pyrazole-5-carboxamide]	–	59
